Results taken from PubChem BioAssay AID2060332 (Molecular Pharmacology Branch, DTP, NCI, 2025).

System: LG0567-F671-PDC multi-cell spheroid viability
Experiment: Anticancer human tumor LG0567-F671-PDC patient-derived lung adenocarcinoma cell line growth inhibition [IpAb]
Conditions: for IC50: curve of first compound; for viability, T/C: stronger effect = lower value
Text: Combinatorial screen of targeted agents with ipatasertib and abemaciclib in multi-cell type tumor spheroids
A high-throughput screen of multi-cell type tumor spheroids was designed to identify active combinations of targeted small molecules and ipatasertib or abemaciclib. Complex spheroids include a stromal component modeled by human endothelial cells (HUVEC) and fibroblasts modeled by human mesenchymal stem cells (MSCs). The concentration ranges selected for each drug and investigational agent were based upon clinically achievable concentrations if the clinical Cmax of the agent was known.
Compounds. The drugs and investigational agents: ipatasertib (NSC767898), abemaciclib(NSC768073), selumetinib (NSC741078), trametinib (758246), adavosertib (NSC754352), everolimus (NSC733504), sapanisertib (NSC764658), vemurafenib (NSC761431), venetoclax (NSC766270), copanlisib (NSC809693), apelisib (NSC765974), palbociblib (NSC758247), vemurafenib (NSC761431), dabrafenib (NSC764134), ravoxertinib (NSC781343), BMS-387032 (NSC767048), sotorasib (NSC818433), talazoparib (NSC767125) and afursertib (NSC778305), were obtained from the National Cancer Institute (NCI) Developmental Therapeutics Program Chemical Repository. The FDA-approved anticancer drug set is available from the NCI Developmental Therapeutics Program. […] The stock solutions were prepared in dimethyl sulfoxide (DMSO, Sigma-Aldrich, St. Louis, MO, cat. D2650) at 800-fold the tested concentration and stored at -70 degrees C prior to their use. All drugs and investigational agents were tested over a range starting from a high concentration at or near the clinical Cmax and decreasing in half-log increments. If the clinical Cmax for an agent had not been determined, the highest concentration tested was 10 microM.
NCI60 Cell Culture. NCI60 cell lines were obtained from the NCI Developmental Therapeutics Program Tumor Repository. For each lot of cells, the Repository performed Applied Biosystems AmpFLSTR Identifiler testing with PCR amplification to confirm consistency with the published Identifier STR profile for each cell line. Cells were kept in continuous culture for no more than 20 passages. The optimal seeding densities for each of the cell lines at each time point assessed were determined prior to performing the concentration response studies. Briefly, the NCI60 human tumor lines were grown as monolayers in RPMI 1640 medium supplemented with 10% FBS and 2 mmol/L L-glutamine.
An additional 9 lines were from the NCI60 cell line panel including MDA-MB-231 breast carcinoma, MDA-MB-468 breast carcinoma, MCF7 breast carcinoma, Hs578T breast carcinoma, MALME-3M melanoma, SK-MEL-2 melanoma, SK-OV-3 ovarian carcinoma, DU-145 prostate carcinoma, PC-3 prostate carcinoma, all cell lines along with major genetic alterations are listed on Table 2. Pooled donor human umbilical vein endothelial cells (HUVEC, Lonza, cat. CC-2519) and human mesenchymal stem cells (hMSC, Lonza, cat. PT-2501) were purchased from Lonza (Walkersville, MD).
PDMR cell lines were grown in complete medium (DC medium): Dulbecco's modified Eagle's medium (DMEM)/F12 supplemented with 5% fetal bovine serum (FBS), 2 mM L-glutamine, 100 U/mL penicillin and 100 µg/ml streptomycin, 0.4 µg/ml hydrocortisone, 10 ng/ml epidermal growth factor (EGF) recombinant human protein, 24 µg/mL adenine, and 0.1 mg/mL primocin. During culture from frozen stock vials, PDMR cells were cultured in the same medium containing 10 µM Y-27632 (see Table 3). The PDCs were cultured in complete DMEM/F12 media without 10 microM Y-27632 dihydrochloride for at least two passages prior to the screen. The pooled donor HUVEC and hMSC were cultured in endothelial cell growth medium 2 (PromoCell, Heidelberg, Germany, cat. C-22011) and mesenchymal stem cell growth medium 2 (PromoCell, cat. C-28009), respectively. For all experiments, HUVEC and hMSC were used at passages </=5.
[…]

[1] = second compound 0.1 µM, first compound 0.0316 µM
[2] = second compound 0.1 µM, first compound 0.1 µM
[3] = second compound 0.1 µM, first compound 0.316 µM
[4] = second compound 0.1 µM, first compound 1 µM
[5] = second compound 0.1 µM, first compound 3.16 µM
[6] = second compound 0.1 µM, first compound 10 µM
[7] = second compound 0.316 µM, first compound 0.0316 µM
[8] = second compound 0.316 µM, first compound 0.1 µM
[9] = second compound 0.316 µM, first compound 0.316 µM
[10] = second compound 0.316 µM, first compound 1 µM
[11] = second compound 0.316 µM, first compound 3.16 µM
[12] = second compound 0.316 µM, first compound 10 µM
[13] = second compound 1 µM, first compound 0.0316 µM
[14] = second compound 1 µM, first compound 0.1 µM
[15] = second compound 1 µM, first compound 0.316 µM
[16] = second compound 1 µM, first compound 1 µM
[17] = second compound 1 µM, first compound 3.16 µM
[18] = second compound 1 µM, first compound 10 µM
[19] = second compound 3.16 µM, first compound 0.0316 µM
[20] = second compound 3.16 µM, first compound 0.1 µM
[21] = second compound 3.16 µM, first compound 0.316 µM
[22] = second compound 3.16 µM, first compound 1 µM
[23] = second compound 3.16 µM, first compound 3.16 µM
[24] = second compound 3.16 µM, first compound 10 µM
[25] = second compound 10 µM, first compound 0.0316 µM
[26] = second compound 10 µM, first compound 0.1 µM
[27] = second compound 10 µM, first compound 0.316 µM
[28] = second compound 10 µM, first compound 1 µM
[29] = second compound 10 µM, first compound 3.16 µM
[30] = second compound 10 µM, first compound 10 µM
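Further: viability read after 7 days of drug exposure.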
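Wherever viability, T/C is given: 100% = DMSO vehicle control luminescence.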

Compound	IC50 (second compound 0.1 µM)	IC50 (second compound 0.316 µM)	IC50 (second compound 1 µM)	IC50 (second compound 3.16 µM)	IC50 (second compound 10 µM)	viability, T/C [1]	viability, T/C [2]	viability, T/C [3]	viability, T/C [4]	viability, T/C [5]	viability, T/C [6]	viability, T/C [7]	viability, T/C [8]	viability, T/C [9]	viability, T/C [13]	viability, T/C [14]	viability, T/C [19]	viability, T/C [20]	viability, T/C [25]	viability, T/C [26]	further results
C=CCn1c(=O)c2cnc(Nc3ccc(N4CCN(C)CC4)cc3)nc2n1-c1cccc(C(C)(C)O)n1 + CC(C)NCC(C(=O)N1CCN(c2ncnc3c2C(C)CC3O)CC1)c1ccc(Cl)cc1	479 nM	803 nM	626 nM	1050 nM	646 nM	80.7%	78.5%	52.1%	44.6%	34.6%	33.4%	75%	73.1%	53.3%	69.6%	84.6%	79.1%	83%	72.8%	76%	viability, T/C [10]: 50.5%; viability, T/C [11]: 36.2%; viability, T/C [12]: 23.6%; viability, T/C [15]: 65.2%; viability, T/C [16]: 37.8%; viability, T/C [17]: 37.6%; viability, T/C [18]: 20.2%; viability, T/C [21]: 59.1%; viability, T/C [22]: 50.8%; viability, T/C [23]: 36.9%; viability, T/C [24]: 19.5%; viability, T/C [27]: 51.7%; viability, T/C [28]: 49.1%; viability, T/C [29]: 31.9%; viability, T/C [30]: 26.8%
CC(C)n1nc(-c2ccc3oc(N)nc3c2)c2c(N)ncnc21 + CC(C)NCC(C(=O)N1CCN(c2ncnc3c2C(C)CC3O)CC1)c1ccc(Cl)cc1	80.4 nM	> 100 nM	> 100 nM	27.1 nM	11.7 nM	59.1%	46.4%	–	–	–	–	50.4%	59.5%	–	57.9%	46.4%	45.5%	39.9%	37%	43%	viability, T/C (second compound 0.1 µM, first compound 0.000316 µM): 89%; viability, T/C (second compound 0.1 µM, first compound 0.001 µM): 99.4%; viability, T/C (second compound 0.1 µM, first compound 0.00316 µM): 76.8%; viability, T/C (second compound 0.1 µM, first compound 0.01 µM): 65.8%; viability, T/C (second compound 0.316 µM, first compound 0.000316 µM): 76%; viability, T/C (second compound 0.316 µM, first compound 0.001 µM): 76%; viability, T/C (second compound 0.316 µM, first compound 0.00316 µM): 87%; viability, T/C (second compound 0.316 µM, first compound 0.01 µM): 66.5%; viability, T/C (second compound 1 µM, first compound 0.000316 µM): 70.3%; viability, T/C (second compound 1 µM, first compound 0.001 µM): 81.3%; viability, T/C (second compound 1 µM, first compound 0.00316 µM): 76.6%; viability, T/C (second compound 1 µM, first compound 0.01 µM): 57%; viability, T/C (second compound 3.16 µM, first compound 0.000316 µM): 97.2%; viability, T/C (second compound 3.16 µM, first compound 0.001 µM): 71.7%; viability, T/C (second compound 3.16 µM, first compound 0.00316 µM): 73%; viability, T/C (second compound 3.16 µM, first compound 0.01 µM): 62.7%; viability, T/C (second compound 10 µM, first compound 0.000316 µM): 72.9%; viability, T/C (second compound 10 µM, first compound 0.001 µM): 72.2%; viability, T/C (second compound 10 µM, first compound 0.00316 µM): 63.9%; viability, T/C (second compound 10 µM, first compound 0.01 µM): 53.8%
CC1(C)CCC(CN2CCN(c3ccc(C(=O)NS(=O)(=O)c4ccc(NCC5CCOCC5)c([N+](=O)[O-])c4)c(Oc4cnc5[nH]ccc5c4)c3)CC2)=C(c2ccc(Cl)cc2)C1 + CC(C)NCC(C(=O)N1CCN(c2ncnc3c2C(C)CC3O)CC1)c1ccc(Cl)cc1	6900 nM	5510 nM	5380 nM	5360 nM	4760 nM	78.6%	86.3%	93.8%	88.6%	93.9%	31.9%	50%	91.5%	81.6%	63.5%	82.9%	71.5%	80.1%	77.3%	79.5%	viability, T/C [10]: 55.8%; viability, T/C [11]: 83.8%; viability, T/C [12]: 25.9%; viability, T/C [15]: 88.4%; viability, T/C [16]: 76.2%; viability, T/C [17]: 70.4%; viability, T/C [18]: 26.1%; viability, T/C [21]: 79.9%; viability, T/C [22]: 62.2%; viability, T/C [23]: 72.7%; viability, T/C [24]: 23.6%; viability, T/C [27]: 76.2%; viability, T/C [28]: 79.9%; viability, T/C [29]: 72.8%; viability, T/C [30]: 8.73%
CCCS(=O)(=O)Nc1ccc(F)c(C(=O)c2c[nH]c3ncc(-c4ccc(Cl)cc4)cc23)c1F + CC(C)NCC(C(=O)N1CCN(c2ncnc3c2C(C)CC3O)CC1)c1ccc(Cl)cc1	> 10000 nM	> 10000 nM	> 10000 nM	> 10000 nM	> 10000 nM	100%	119%	111%	137%	162%	147%	77.1%	90.5%	94.5%	77.3%	78.6%	88.3%	82.5%	88.3%	64.1%	viability, T/C [10]: 114%; viability, T/C [11]: 127%; viability, T/C [12]: 140%; viability, T/C [15]: 88.3%; viability, T/C [16]: 115%; viability, T/C [17]: 124%; viability, T/C [18]: 82%; viability, T/C [21]: 93.8%; viability, T/C [22]: 102%; viability, T/C [23]: 82.9%; viability, T/C [24]: 77.5%; viability, T/C [27]: 77%; viability, T/C [28]: 84.9%; viability, T/C [29]: 70.3%; viability, T/C [30]: 57.7%
